Results: patent US7998936B2, “Use of timosaponin Bll in the preparation of a medicament or product for the prevention and treatment of stroke” (Institute of Radiation Medicine, Academy of Military …, priority 2004, dated 2011)

Tests used:
[1] = tested on: Middle Cerebral Artery Thrombosis (MCAT) Rats; assay: Water content in brain tissues in middle cerebral artery thrombosis rats; type: in vivo, rat; settings: 24 h after operation, 12 mg/kg
[2] = tested on: acute blood stagnation model rats; assay: Whole blood and plasma viscosities in acute blood stagnation model rats; type: in vivo, rat; settings: 12 mg/kg by gavage 5 days
Excerpt: MAO Teng-min's methods were modified to prepare the model.

[3] = tested on: acute blood stagnation model rats; assay: Erythrocyte aggregation and deformability in acute blood stagnation model rats; type: in vivo, rat; settings: 12 mg/kg
Description: MAO Teng-min's methods were modified to prepare the model. Rats were subcutaneously injected with 0.8 mg/kg adrenaline twice at 1 h and 5 h after administration on the fifth day, and were placed into ice-water at 4° C. for 5 min at 2 h after the first injection of adrenaline.
To 40 μl of heparinized blood, 1 ml of deforming solution was added and mixed thoroughly. A sample of 0.8 ml was tested in an erythrocyte aggregation/deformability tester, and erythrocyte deformability was expressed as maximal erythrocyte deformation index and area under curve (SSS). Another 0.8 ml of anticoagulated blood was tested in an erythrocyte aggregation/deformability tester, and erythrocyte aggregation was expressed as maximal erythrocyte aggregation index (MAXD) and area under curve ([…]).

IL-1β = assay: ELISA of IL-1β in brain tissue of cerebral ischemia-reperfusion rats; settings: brain homogenate, 12 mg/kg by gavage 5 days
TNF-α = assay: ELISA of TNF-α in brain tissue of cerebral ischemia-reperfusion rats; settings: brain homogenate, 12 mg/kg by gavage 5 days
IL-10 = assay: ELISA of IL-10 in brain tissue of cerebral ischemia-reperfusion rats; settings: brain homogenate, 12 mg/kg by gavage 5 days
TGF-β = assay: ELISA of TGF-β in brain tissue of cerebral ischemia-reperfusion rats; settings: brain homogenate, 12 mg/kg by gavage 5 days

## COCCOC(=O)C1=C(C)NC(C)=C(C(=O)OC(C)C)C1c1cccc([N+](=O)[O-])c1 (stereo not drawn) [Nimodipine, reference compound]
[1]
  Water content of affected hemisphere: 80.37 ± 0.73 %
  Water content of unaffected hemisphere: 79.44 ± 0.41%
[2]
  Plasma viscosity (100 S^−1): 1.41 ± 0.14
  Whole blood viscosity 1 S^−1: 30.45 ± 8.74
  Whole blood viscosity 5 S^−1: 12.34 ± 2.58
  Whole blood viscosity 30 S^−1: 6.47 ± 0.92
  Whole blood viscosity 200 S^−1: 4.51 ± 0.55
[3]; area under curve
  Erythrocyte aggregation SS: 160.38 ± 16.50
  Erythrocyte deformability SSS: 353.92 ± 15.83
[3]; maximal erythrocyte aggregation index
  Erythrocyte aggregation MAXD: 0.80 ± 0.09
[3]; maximal erythrocyte deformation index
  Erythrocyte deformability MAXDI: 0.70 ± 0.03
IL-1β
  IL-1β: 9.01 ± 0.81 pg/mL
TNF-α
  TNFα: 7.92 ± 0.56 pg/mL
IL-10
  IL-10: 4.98 ± 3.54 pg/mL
TGF-β
  TGF-β: 12.01 ± 2.54 pg/mL
